Values of other authors, collected in paper PMC7770979 (Molecular Metabolism, 2020).

Test system: IR

SerA12 substitution by alanine: insulin with SerA12 substitution by alanine (ref 34)
Affinity to IR, % of insulin: 36%
